Assay results as given in patent US9084754B2, “Highly permeating terbinafine formulation” (NUVO RESEARCH INC., priority 2009, dated 2015).
Counter-ions that a name gives are not always drawn.

Test: Solubility of terbinafine hydrochloride
Type: physicochemical
Conditions: for solubility at 24 h: thermodynamic from solid
Description: Buffer Preparation: Buffers were prepared at 50 mM concentration using ammonium acetate (pHs 4.0 and 10.0) or ammonium phosphate (pHs 6.0, 7.0, and 8.0). Solubility Sample Preparation: 100 to 800 mg terbinafine HCL was transferred to separate 4-mL vials. To each vial, 2 mL of the solvent to be investigated was added. Samples were capped and then rotated for 24 hours at room temperature. The samples were allowed to settle overnight at room temperature. Approximately 0.4 mL of the supernatant was removed and transferred to a 0.45 μm Nylon microcentrifuge filter and clarified. Samples were diluted with 50% methanol to within the calibration range. Sample Analysis: Samples were analyzed by HPLC with five-minute runs.

- solubility at 24 h (50 mM ammonium acetate buffer pH 4.0, aqueous buffer, solvent pH 4.0 buffer): 4800 µg/mL
- solubility at 24 h (50 mM ammonium acetate buffer pH 10.0, aqueous buffer, solvent pH 10.0 buffer): 1500 µg/mL
- solubility at 24 h (50 mM ammonium phosphate buffer pH 6.0, aqueous buffer, solvent pH 6.0 buffer): 5000 µg/mL
- solubility at 24 h (50 mM ammonium phosphate buffer pH 7.0, aqueous buffer, solvent pH 7.0 buffer): 20 µg/mL
- solubility at 24 h (50 mM ammonium phosphate buffer pH 8.0, aqueous buffer, solvent pH 8.0 buffer): 2 µg/mL
- solubility at 24 h (aqueous buffer, solvent PBS pH 5.5): 700 µg/mL
- Solubility in words (aqueous solvents with pHs of 4 and 6): moderate solubility
- solubility at 24 h (aqueous with cosolvent or surfactant or cyclodextrin, solvent 10% Ethanol): 7500 µg/mL
- solubility at 24 h (aqueous with cosolvent or surfactant or cyclodextrin, solvent 20% Ethanol): 11000 µg/mL
- solubility at 24 h (aqueous with cosolvent or surfactant or cyclodextrin, solvent 40% Ethanol): 53000 µg/mL
- solubility at 24 h (aqueous with cosolvent or surfactant or cyclodextrin, solvent 50% Ethanol): 119000 µg/mL
- Solubility in words (non-polar solvents such as ethyl acetate and isopropyl myristate): lower solubility
- solubility at 24 h (oil or lipid, solvent Isopropyl myristate): 30 µg/mL
- solubility at 24 h (organic solvent or mixture, solvent DMSO): 114000 µg/mL
- solubility at 24 h (organic solvent or mixture, solvent Ethanol): 172000 µg/mL
- solubility at 24 h (organic solvent or mixture, solvent Isopropanol): 26300 µg/mL
- Solubility in words (pHs 7, 8, and 10): substantially lower solubility
- Solubility in words (polar organic solvents such as ethanol and DMSO): high solubility
- Solubility (solvent 5% Ethanol): 6700 µg/mL
- Solubility (solvent Ethyl acetate): 700 µg/mL
- solubility at 24 h (solvent Water, room temperature): 5900 µg/mL
SMILES: CN(C/C=C/C#CC(C)(C)C)Cc1cccc2ccccc12 [Terbinafine, terbinafine hydrochloride]
